Experimental data as given in patent publication US10316020B2, “Indane derivatives and the use thereof as soluble guanylate cyclase activators” (NOVARTIS AG, priority 2015, dated 2019).

The molecules below were run against T1, soluble guanylate cyclase (GUCYA3/GUCYB3) overexpressed in CHO cells (Homo sapiens, UniProt Q02108+Q02153) (assay: CHO cellular assay (cGMP production, HTRF)). Conditions: CHO GUCY clone 8E10; assay buffer with 1 mM IBMX, 20 uM ODQ; 1 h at room temperature; cGMP HTRF; quantification limit 0.0005 μM; read-out: Mean EC50.
T1 construct: expressed in transfected cells
T1 sequence (Q02108 1-690 partner): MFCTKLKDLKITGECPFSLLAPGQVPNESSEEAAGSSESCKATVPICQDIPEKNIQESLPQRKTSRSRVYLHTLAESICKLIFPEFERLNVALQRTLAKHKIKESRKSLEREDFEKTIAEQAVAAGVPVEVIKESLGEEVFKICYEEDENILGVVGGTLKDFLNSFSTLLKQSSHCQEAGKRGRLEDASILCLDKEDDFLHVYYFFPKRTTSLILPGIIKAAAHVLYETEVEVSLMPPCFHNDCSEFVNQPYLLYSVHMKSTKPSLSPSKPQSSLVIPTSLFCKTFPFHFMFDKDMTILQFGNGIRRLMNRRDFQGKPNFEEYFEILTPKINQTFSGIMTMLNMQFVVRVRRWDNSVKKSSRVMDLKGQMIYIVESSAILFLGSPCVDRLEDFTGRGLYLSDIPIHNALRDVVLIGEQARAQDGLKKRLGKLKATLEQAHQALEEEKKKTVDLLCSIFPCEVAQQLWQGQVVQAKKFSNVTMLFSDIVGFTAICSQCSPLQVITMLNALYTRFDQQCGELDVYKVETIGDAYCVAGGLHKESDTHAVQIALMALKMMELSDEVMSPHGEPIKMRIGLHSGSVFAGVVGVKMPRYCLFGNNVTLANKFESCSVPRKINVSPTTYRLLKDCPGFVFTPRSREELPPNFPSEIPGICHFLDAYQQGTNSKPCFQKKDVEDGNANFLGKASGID
T1 sequence (Q02153 1-619): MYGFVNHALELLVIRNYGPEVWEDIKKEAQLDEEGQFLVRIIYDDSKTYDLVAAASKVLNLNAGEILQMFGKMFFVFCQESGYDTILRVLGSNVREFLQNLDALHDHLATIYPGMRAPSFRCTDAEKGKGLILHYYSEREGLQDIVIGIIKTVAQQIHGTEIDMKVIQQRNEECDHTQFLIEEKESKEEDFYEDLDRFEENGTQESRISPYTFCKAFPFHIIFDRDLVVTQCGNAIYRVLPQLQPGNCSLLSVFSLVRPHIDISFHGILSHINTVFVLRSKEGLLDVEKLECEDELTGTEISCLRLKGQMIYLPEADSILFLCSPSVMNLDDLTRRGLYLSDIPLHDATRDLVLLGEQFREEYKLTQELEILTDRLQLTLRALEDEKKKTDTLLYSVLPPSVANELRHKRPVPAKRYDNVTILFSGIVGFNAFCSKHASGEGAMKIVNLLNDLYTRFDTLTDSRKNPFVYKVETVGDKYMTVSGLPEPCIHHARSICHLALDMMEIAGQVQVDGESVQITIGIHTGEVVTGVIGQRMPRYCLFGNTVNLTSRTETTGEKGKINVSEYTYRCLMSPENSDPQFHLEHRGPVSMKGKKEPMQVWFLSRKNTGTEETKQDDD
Format: cell-based
From the text: Chinese hamster ovary (CHO) cells overexpressing soluble guanylate cyclase were generated to test the effect of sGC activators in a cellular context. Human cDNAs for GUCYA3 (RefSeq: NM_000856.3) and GUCYB3 (RefSeq: NM_000857.1) were amplified by PCR from a HUVEC (Human Umbilical Vein Endothelial Cells) cDNA library and cloned into mammalian expression vectors. CHO K1 cells (ATCC CCL-61) were transfected using Lipofectamine 2000 following manufacturer's instructions and stably expressing clones were identified by antibiotic selection. CHO GUCY clone 8E10 was used for subsequent experiments.
Cells were seeded at a density of 3000 cells/well in white 384-well proxyplates (Perkin Elmer) and incubated overnight, then the medium was removed and cells were washed with assay buffer (HBSS, 0.1% BSA, 1 mM IBMX, 20 uM ODQ). sGC activators were serially diluted in DMSO, then diluted in assay buffer prior to adding to cells (10 ul/well, final DMSO concentration 0.5%). Cells were incubated with compounds for 1 h at room temperature, then assayed for cGMP production using Cisbio cGMP HTRF kit (62GM2PEC) according to manufacturer's instructions.
The EC50s are calculated based on the amount of cGMP interpolated from the standard curve, using a 4-parameter sigmoidal dose-response.
Compounds of invention are active on sGC activation. Data in Table 1 collected using the assay of Biological Example 1.

| EC50 | Structure (SMILES) |
| --- | --- |
| 71 nM | CCc1nc(NC2CCc3cccc(-c4cccc(-n5ncc(C(=O)O)c5OC)n4)c32)ccc1C1=CCN(C(=O)[C@H](C)O)CC1 (single isomer, unassigned) [Example 17A, 1-(6-((R or S)-3-((2-ethyl-1′-((S)-2-hydroxypropanoyl)-1′,2′,3′,6′-tetrahydro-[3,4′-bipyridin]-6-yl)amino)-2,3-dihydro-1H-inden-4-yl)pyridin-2-yl)-5-methoxy-1H-pyrazole-4-carboxylic acid] |
| 279 nM | CCc1nc(NC2CCc3cccc(-c4cccc(-n5ncc(C(=O)O)c5OC)n4)c32)ccc1C1=CCN(C(=O)C2CC2)CC1 (single isomer, unassigned; (-)) [Example 16B, (−)-1-(6-(3-((1′-(Cyclopropanecarbonyl)-2-ethyl-1′,2′,3′,6′-tetrahydro-[3,4′-bipyridin]-6-yl)amino)-2,3-dihydro-1H-inden-4-yl)pyridin-2-yl)-5-methoxy-1H-pyrazole-4-carboxylic acid] |
| < 0.5 nM | CCc1cc(C[C@H]2CCc3cccc(-c4cccc(-n5ncc(C(=O)O)c5OC)n4)c32)ccc1C1CCN(C(=O)C2CC2)CC1 [Example 13, (+)-(R)-1-(6-(3-(4-(1-(Cyclopropanecarbonyl)piperidin-4-yl)-3-ethylbenzyl)-2,3-dihydro-1H-inden-4-yl)pyridin-2-yl)-5-methoxy-1H-pyrazole-4-carboxylic acid] |
| 1 nM | CCc1cc(O[C@H]2CCc3cccc(-c4cccc(-n5ncc(C(=O)O)c5OC)n4)c32)ccc1C1CCN(C(=O)[C@H](C)O)CC1 [Example 15, 1-(6-((S)-3-(3-Ethyl-4-(1-((S)-2-hydroxypropanoyl)piperidin-4-yl)phenoxy)-2,3-dihydro-1H-inden-4-yl)pyridin-2-yl)-5-methoxy-1H-pyrazole-4-carboxylic acid] |
| < 0.5 nM | CCc1cc(NC2CCc3cccc(-c4cccc(-n5ncc(C(=O)O)c5NC)c4)c32)ccc1C1CCN(C(=O)C2CC2)CC1 (single isomer, unassigned; enantiomer-2) [Example 12B, (enantiomer-2)-1-(3-(3-((4-(1-(Cyclopropanecarbonyl)piperidin-4-yl)-3-ethylphenyl)amino)-2,3-dihydro-1H-inden-4-yl)phenyl)-5-(methylamino)-1H-pyrazole-4-carboxylic acid] |
| < 0.5 nM | CCc1nc(NC2CCc3cccc(-c4cccc(-n5ncc(C(=O)O)c5NC)c4)c32)ccc1C1=CCN(C(=O)C2CC2)CC1 (single isomer, unassigned; (+)) [Example 22A, (+)-1-(3-(3-((1′-(Cyclopropanecarbonyl)-2-ethyl-1′,2′,3′,6′-tetrahydro-[3,4′-bipyridin]-6-yl)amino)-2,3-dihydro-1H-inden-4-yl)phenyl)-5-(methylamino)-1H-pyrazole-4-carboxylic acid] |
| < 0.5 nM | CCc1cc(O[C@H]2CCc3cccc(-c4cccc(-n5ncc(C(=O)O)c5OC)n4)c32)ccc1C1CCN(C(=O)C2CC2)CC1 [Example 14, (S)-1-(6-(3-(4-(1-(Cyclopropanecarbonyl)piperidin-4-yl)-3-ethylphenoxy)-2,3-dihydro-1H-inden-4-yl)pyridin-2-yl)-5-methoxy-1H-pyrazole-4-carboxylic acid] |
| < 0.5 nM | CCc1cc(C[C@H]2CCc3cccc(-c4cccc(-n5ncc(C(=O)O)c5N)n4)c32)ccc1C1CCN(C(=O)C2CC2)CC1 [Example 23, (R)-5-Amino-1-(6-(3-(4-(1-(cyclopropanecarbonyl)piperidin-4-yl)-3-ethylbenzyl)-2,3-dihydro-1H-inden-4-yl)pyridin-2-yl)-1H-pyrazole-4-carboxylic acid] |
| < 0.5 nM | CCc1cc(C[C@H]2CCc3cccc(-c4cccc(-n5ncc(C(=O)O)c5OC)n4)c32)ccc1C1CCN(C(=O)[C@H](C)O)CC1 [Example 24, (+)-(R)-1-(6-(3-(3-Ethyl-4-(1-((S)-2-hydroxypropanoyl)piperidin-4-yl)benzyl)-2,3-dihydro-1H-inden-4-yl)pyridin-2-yl)-5-methoxy-1H-pyrazole-4-carboxylic acid] |

The next lines start with the molecule.

| Structure (SMILES) | EC50 |
| --- | --- |
| CCc1cc(NC2CCc3cccc(-c4cccc(-n5ncc(C(=O)O)c5N)c4)c32)ccc1C1CCN(C(=O)C2CC2)CC1 (single isomer, unassigned; (-)) [Example 9B, (−)-5-Amino-1-(3-(3-((4-(1-(cyclopropanecarbonyl)piperidin-4-yl)-3-ethylphenyl)amino)-2,3-dihydro-1H-inden-4-yl)phenyl)-1H-pyrazole-4-carboxylic acid] | 58 nM |
| CCc1nc(NC2CCc3cccc(-c4cccc(-n5ncc(C(=O)O)c5OC)c4)c32)ccc1C1=CCN(C(=O)[C@H](C)O)CC1 (single isomer, unassigned) [Example 11B, 1-(3-((R or S)-3-((2-ethyl-1′-((S)-2-hydroxypropanoyl)-1′,2′,3′,6′-tetrahydro-[3,4′-bipyridin]-6-yl)amino)-2,3-dihydro-1H-inden-4-yl)phenyl)-5-methoxy-1H-pyrazole-4-carboxylic acid] | 1.4 nM |
| CCc1nc(NC2CCc3cccc(-c4cccc(-n5ncc(C(=O)O)c5OC)c4)c32)ccc1C1=CCN(C(=O)C2CC2)CC1 (single isomer, unassigned; (-)) [Example 10B, (−)-1-(3-(3-((1′-(Cyclopropanecarbonyl)-2-ethyl-1′,2′,3′,6′-tetrahydro-[3,4′-bipyridin]-6-yl)amino)-2,3-dihydro-1H-inden-4-yl)phenyl)-5-methoxy-1H-pyrazole-4-carboxylic acid] | 149 nM |
| CCc1cc(O[C@H]2CCc3cccc(-c4cccc(-n5ncc(C(=O)O)c5OC)c4)c32)ccc1C1CCN(C(=O)[C@H](C)O)CC1 [Example 6, 1-(3-((S)-3-(3-Ethyl-4-(1-((S)-2-hydroxypropanoyl)piperidin-4-yl)phenoxy)-2,3-dihydro-1H-inden-4-yl)phenyl)-5-methoxy-1H-pyrazole-4-carboxylic acid] | < 0.5 nM |
| CCc1nc(NC2CCc3cccc(-c4cccc(-n5ncc(C(=O)O)c5OC)c4)c32)ccc1C1=CCN(C(=O)C2CC2)CC1 (single isomer, unassigned; (+)) [Example 10A, (+)-1-(3-(3-((1′-(Cyclopropanecarbonyl)-2-ethyl-1′,2′,3′,6′-tetrahydro-[3,4′-bipyridin]-6-yl)amino)-2,3-dihydro-1H-inden-4-yl)phenyl)-5-methoxy-1H-pyrazole-4-carboxylic acid] | < 0.5 nM |
| CCc1cc(C[C@H]2CCc3cccc(-c4cccc(-n5ncc(C(=O)O)c5OC)c4)c32)ccc1C1CCN(C(=O)[C@H](C)O)CC1 [Example 2A, (+)-1-(3-((R)-3-(3-Ethyl-4-(1-((S)-2-hydroxypropanoyl)piperidin-4-yl)benzyl)-2,3-dihydro-1H-inden-4-yl)phenyl)-5-methoxy-1H-pyrazole-4-carboxylic acid] | < 0.5 nM |
| CCc1cc(NC2CCc3cccc(-c4cccc(-n5ncc(C(=O)O)c5NC)c4)c32)ccc1C1CCN(C(=O)C2CC2)CC1 (single isomer, unassigned; enantiomer-1) [Example 12A, (enantiomer-1)-1-(3-(3-((4-(1-(Cyclopropanecarbonyl)piperidin-4-yl)-3-ethylphenyl)amino)-2,3-dihydro-1H-inden-4-yl)phenyl)-5-(methylamino)-1H-pyrazole-4-carboxylic acid] | 53 nM |
